Assay results as given in BindingDB's records for doi:10.1021/jm070851i (Wyeth Research, 2007).

Target: T1, 3-phosphoinositide-dependent protein kinase 1 (Homo sapiens, UniProt O15530)
T1 sequence (O15530 whole entry): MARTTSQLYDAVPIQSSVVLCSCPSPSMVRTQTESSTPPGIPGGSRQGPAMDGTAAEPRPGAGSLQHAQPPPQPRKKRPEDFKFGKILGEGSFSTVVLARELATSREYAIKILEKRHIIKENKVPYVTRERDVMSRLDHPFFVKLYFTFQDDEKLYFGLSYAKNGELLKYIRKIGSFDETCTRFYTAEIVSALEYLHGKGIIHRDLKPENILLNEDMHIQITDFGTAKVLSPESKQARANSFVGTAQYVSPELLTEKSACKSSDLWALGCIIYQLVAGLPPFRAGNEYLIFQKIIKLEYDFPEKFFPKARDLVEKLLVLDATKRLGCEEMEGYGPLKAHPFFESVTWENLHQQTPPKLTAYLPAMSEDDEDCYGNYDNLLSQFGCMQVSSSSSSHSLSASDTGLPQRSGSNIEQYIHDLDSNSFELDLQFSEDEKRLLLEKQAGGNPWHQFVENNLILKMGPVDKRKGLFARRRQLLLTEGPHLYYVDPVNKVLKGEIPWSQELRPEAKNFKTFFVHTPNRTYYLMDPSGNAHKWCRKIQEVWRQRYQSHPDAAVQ
Experiment: ELISA assay
Conditions: pH 7.4; 23 °C
Experimental: A homogeneous in vitro assay based on a LANCE format was first used for high-throughput screening. […] ELISA IC50s were determined by Microsoft Excel data analysis wizard model 63 with the luminescent signal from wells without compound treatment as 100%.

Question: With COc1cc2c(cc1NCCN1CCOCC1)ncc1c(N)nc3c(C)c(N)ccc3c12 [16-methoxy-6-methyl-15-N-[2-(morpholin-4-yl)ethyl]-8,12-diazatetracyclo[8.8.0.0^{2,7}.0^{13,18}]octadeca-1(10),2(7),3,5,8,11,13,15,17-nonaene-5,9,15-triamine] as the compound, how does the IC50 read?
Answer: 300 nM
